This is an account of results in ChEMBL document CHEMBL5678818, “Discovery of potent SOS1 inhibitors that block RAS activation via disruption of the RAS-SOS1 interaction” (Proc Natl Acad Sci U S A, 2019).

Assay [1] addresses T1, Aurora kinase C (Homo sapiens) (UniProt Q9UQB9).
T1 sequence (whole entry): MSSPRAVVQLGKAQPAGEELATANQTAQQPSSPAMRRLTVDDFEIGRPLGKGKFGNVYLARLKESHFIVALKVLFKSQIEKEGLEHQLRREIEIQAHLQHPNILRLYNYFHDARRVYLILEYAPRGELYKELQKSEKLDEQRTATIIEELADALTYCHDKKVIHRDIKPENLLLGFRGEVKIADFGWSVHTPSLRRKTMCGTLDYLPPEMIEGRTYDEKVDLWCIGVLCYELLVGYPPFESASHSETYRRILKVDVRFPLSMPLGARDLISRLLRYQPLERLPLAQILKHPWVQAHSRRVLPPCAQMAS
Kind of assay: Inhibition of AURKC (unknown origin) assessed as residual activity at 1000 nM by KINOMEscan analysis relative to control.

Assay [2] has as its target T2, Serine/threonine-protein kinase 17B (Homo sapiens) (UniProt O94768).
T2 sequence (whole entry): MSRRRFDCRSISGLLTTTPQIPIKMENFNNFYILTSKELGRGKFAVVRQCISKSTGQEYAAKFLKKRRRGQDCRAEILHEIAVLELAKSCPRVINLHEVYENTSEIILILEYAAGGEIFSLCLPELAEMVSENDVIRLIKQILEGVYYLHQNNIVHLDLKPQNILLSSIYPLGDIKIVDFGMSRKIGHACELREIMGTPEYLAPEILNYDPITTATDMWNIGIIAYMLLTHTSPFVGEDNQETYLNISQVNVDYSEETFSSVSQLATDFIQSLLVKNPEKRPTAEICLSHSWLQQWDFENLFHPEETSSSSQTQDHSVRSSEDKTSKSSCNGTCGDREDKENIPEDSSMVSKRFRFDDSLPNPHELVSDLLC
Briefly: Inhibition of DRAK2 (unknown origin) assessed as residual activity at 1000 nM by KINOMEscan analysis relative to control.

Assay [3] addresses Mitogen-activated protein kinase kinase kinase 14 (Homo sapiens) (UniProt Q99558). Briefly: Inhibition of NIK (unknown origin) assessed as residual activity at 1000 nM by KINOMEscan analysis relative to control.
For assay [4], the target named is Dual specificity tyrosine-phosphorylation-regulated kinase 1A (Homo sapiens) (UniProt Q13627). Briefly: Inhibition of DYRK1A (unknown origin) assessed as residual activity at 1000 nM by KINOMEscan analysis relative to control.
For assay [5], the target named is T3, Receptor-interacting serine/threonine-protein kinase 1 (Homo sapiens) (UniProt Q13546).
T3 sequence (whole entry): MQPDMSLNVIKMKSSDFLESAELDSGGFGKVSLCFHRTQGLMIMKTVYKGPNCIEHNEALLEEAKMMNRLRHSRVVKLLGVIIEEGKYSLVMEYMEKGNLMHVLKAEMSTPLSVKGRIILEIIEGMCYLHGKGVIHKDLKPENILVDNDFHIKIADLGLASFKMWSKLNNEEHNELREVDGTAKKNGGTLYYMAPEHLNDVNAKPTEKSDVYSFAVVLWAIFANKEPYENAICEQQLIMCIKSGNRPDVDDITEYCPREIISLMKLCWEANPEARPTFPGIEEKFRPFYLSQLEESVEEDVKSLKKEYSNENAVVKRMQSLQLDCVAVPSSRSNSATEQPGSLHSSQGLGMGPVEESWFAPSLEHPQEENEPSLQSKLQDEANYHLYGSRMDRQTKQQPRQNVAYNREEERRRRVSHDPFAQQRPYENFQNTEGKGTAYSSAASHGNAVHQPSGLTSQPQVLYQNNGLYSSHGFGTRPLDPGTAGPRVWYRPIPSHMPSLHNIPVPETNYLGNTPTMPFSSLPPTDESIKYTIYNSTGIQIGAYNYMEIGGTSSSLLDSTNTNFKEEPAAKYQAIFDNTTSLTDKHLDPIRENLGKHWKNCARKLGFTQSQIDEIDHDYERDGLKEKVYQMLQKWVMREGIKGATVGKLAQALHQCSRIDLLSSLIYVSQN
Kind of assay: Inhibition of RIPK1 (unknown origin) assessed as residual activity at 1000 nM by KINOMEscan analysis relative to control.

Assay [6] concerns the target T4, Mitogen-activated protein kinase 13 (Homo sapiens) (UniProt O15264).
T4 sequence (whole entry): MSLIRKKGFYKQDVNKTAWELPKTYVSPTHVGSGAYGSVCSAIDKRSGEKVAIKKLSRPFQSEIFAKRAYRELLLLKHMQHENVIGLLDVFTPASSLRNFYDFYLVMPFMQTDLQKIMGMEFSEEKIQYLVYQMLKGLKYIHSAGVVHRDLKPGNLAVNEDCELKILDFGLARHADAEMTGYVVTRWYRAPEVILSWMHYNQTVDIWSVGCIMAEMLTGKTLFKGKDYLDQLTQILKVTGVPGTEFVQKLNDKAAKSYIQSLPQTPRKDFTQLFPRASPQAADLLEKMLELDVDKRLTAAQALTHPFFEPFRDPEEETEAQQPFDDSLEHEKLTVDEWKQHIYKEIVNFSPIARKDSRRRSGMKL
Briefly: Inhibition of p38-delta (unknown origin) assessed as residual activity at 1000 nM by KINOMEscan analysis relative to control.

The target of assay [7] is Tyrosine-protein kinase BTK (Homo sapiens) (UniProt Q06187). Briefly: Inhibition of BTK (unknown origin) assessed as residual activity at 1000 nM by KINOMEscan analysis relative to control.
Sequence of Tyrosine-protein kinase BTK (Homo sapiens) (Q06187 whole entry): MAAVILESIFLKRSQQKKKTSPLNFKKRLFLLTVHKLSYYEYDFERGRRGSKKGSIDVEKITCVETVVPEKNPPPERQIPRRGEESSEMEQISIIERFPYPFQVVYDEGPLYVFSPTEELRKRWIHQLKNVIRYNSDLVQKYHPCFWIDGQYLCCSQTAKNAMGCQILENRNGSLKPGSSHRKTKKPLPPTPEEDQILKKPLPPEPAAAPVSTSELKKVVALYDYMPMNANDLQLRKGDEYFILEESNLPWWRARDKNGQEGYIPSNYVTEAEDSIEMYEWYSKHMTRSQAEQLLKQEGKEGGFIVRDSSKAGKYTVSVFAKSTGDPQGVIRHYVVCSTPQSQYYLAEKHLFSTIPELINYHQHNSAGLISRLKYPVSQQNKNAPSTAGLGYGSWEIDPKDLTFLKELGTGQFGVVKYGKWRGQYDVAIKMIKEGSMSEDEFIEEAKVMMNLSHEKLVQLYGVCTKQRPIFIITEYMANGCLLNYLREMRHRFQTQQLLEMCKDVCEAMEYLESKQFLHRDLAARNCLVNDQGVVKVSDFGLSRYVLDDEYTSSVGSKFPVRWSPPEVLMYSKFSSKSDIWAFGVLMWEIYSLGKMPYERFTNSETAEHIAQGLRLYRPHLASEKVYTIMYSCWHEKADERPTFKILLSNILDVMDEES

Sequence of Mitogen-activated protein kinase kinase kinase 14 (Homo sapiens) (Q99558 whole entry, looked up): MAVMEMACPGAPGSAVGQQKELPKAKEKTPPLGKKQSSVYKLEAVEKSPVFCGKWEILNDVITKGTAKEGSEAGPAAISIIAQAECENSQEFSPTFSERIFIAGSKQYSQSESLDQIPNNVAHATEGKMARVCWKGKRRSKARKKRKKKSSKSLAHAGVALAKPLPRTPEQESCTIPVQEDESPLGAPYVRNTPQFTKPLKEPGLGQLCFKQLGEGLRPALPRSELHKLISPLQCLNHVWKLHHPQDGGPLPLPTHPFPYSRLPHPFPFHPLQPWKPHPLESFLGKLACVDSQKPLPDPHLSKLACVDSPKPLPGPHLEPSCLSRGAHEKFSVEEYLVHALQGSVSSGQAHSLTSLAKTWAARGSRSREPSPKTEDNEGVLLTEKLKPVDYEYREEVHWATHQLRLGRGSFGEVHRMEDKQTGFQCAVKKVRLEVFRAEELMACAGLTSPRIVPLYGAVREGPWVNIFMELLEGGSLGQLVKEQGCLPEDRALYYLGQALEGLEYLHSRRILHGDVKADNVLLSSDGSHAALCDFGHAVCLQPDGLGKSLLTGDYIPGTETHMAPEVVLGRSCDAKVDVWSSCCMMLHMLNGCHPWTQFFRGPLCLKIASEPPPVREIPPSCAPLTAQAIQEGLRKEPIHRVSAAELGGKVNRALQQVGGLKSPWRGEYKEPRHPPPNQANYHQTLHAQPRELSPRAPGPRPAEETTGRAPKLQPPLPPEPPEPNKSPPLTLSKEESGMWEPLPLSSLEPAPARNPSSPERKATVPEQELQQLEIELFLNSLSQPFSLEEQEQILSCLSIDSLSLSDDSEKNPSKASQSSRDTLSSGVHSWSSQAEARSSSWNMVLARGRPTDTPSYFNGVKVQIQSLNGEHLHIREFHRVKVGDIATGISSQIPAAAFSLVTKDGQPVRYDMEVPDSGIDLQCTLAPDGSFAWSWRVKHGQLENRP

On to `COc1cc2ncnc(N[C@H](C)c3cccc4ccccc34)c2cc1OC`, for which the Activity stood at 100% in assay [1]; 100% in assay [2]; 91% in assay [3]; 83% in assay [4]; 93% in assay [5]; 100% in assay [6]. In assay [7], the Activity came to 97%.
On to `COc1cc2nc(C)nc(N[C@H](C)c3cccc(-c4cn[nH]c4)c3)c2cc1OC`, for which the Activity in assay [1] is 74%; in assay [2], 67%; in assay [3], 88%; in assay [4], 86%; in assay [5] it was 85%; in assay [6], 90%. Also, in assay [7], the Activity came out at 100%.
